Data reported in patent US20260262643A1, “HERBICIDAL BENZOXAZINES” (FMC CORPORATION, priority 2022, published 2026).

Legend:
goosegrass [1] = test: Test A preemergence; assay type: in vivo, Eleusine indica; details: 1000 g ai/ha, 0 to 100 scale (0 no effect, 100 complete control), 10 days
Text: (§1) Seeds of plant species selected from barnyardgrass (Echinochloa crusgalli), blackgrass (Alopecurus myosuroides), corn (Zea mays), foxtail, giant (giant foxtail, Setaria faberi), goosegrass (Eleusine indica), kochia (Bassia scoparia), oat, wild (wild oat, Avena fatua), pigweed, palmer (palmer amaranth, palmer pigweed, Amaranthus palmeri), Pigweed, Redroot (redroot pigweed, Amaranthus retroflexus), ragweed (common ragweed, Ambrosia artemisiifolia), ryegrass, Italian (italian ryegrass, Lolium multiflorum), soybean (Glycine max), and wheat (Triticum aestivum) were planted into a blend of loam soil and sand and treated preemergence with a directed soil spray using test chemicals formulated in a non-phytotoxic solvent mixture which included a surfactant. At the same time, plants selected from these crops and weed species and also galium (catchweed bedstraw, Galium aparine) and horseweed (Erigeron canadensis) were planted in pots containing the same blend of loam soil and sand and treated with postemergence applications of test chemicals formulated in the same manner. Plants ranged in height from 2 to 10 cm and were in the one- to two-leaf stage for the postemergence treatment. Treated plants and untreated controls were maintained in a greenhouse for 10 days, after which time all treated plants were compared to untreated controls and visually evaluated for injury. Plant response ratings, summarized in Table A, are based on a 0 to 100 scale where 0 is no effect and 100 is complete control. A dash (-) response means no test result.

ryegrass, Italian [2] = test: Test A preemergence; assay type: in vivo, Lolium multiflorum; details: 1000 g ai/ha, 0 to 100 scale (0 no effect, 100 complete control), 10 days
Text: as §1

ragweed [3] = test: Test A postemergence; assay type: in vivo, Ambrosia artemisiifolia; details: 1000 g ai/ha, Postemergence; 0 to 100 scale
Text: as §1

horseweed = test: Test A postemergence; assay type: in vivo, Erigeron canadensis; details: 1000 g ai/ha, Postemergence; 0 to 100 scale
Text: as §1

pigweed, palmer [4] = test: Test A preemergence; assay type: in vivo, Amaranthus palmeri; details: 1000 g ai/ha, 0 to 100 scale (0 no effect, 100 complete control), 10 days
Text: as §1

galium = test: Test A postemergence; assay type: in vivo, Galium aparine; details: 1000 g ai/ha, Postemergence; 0 to 100 scale
Text: as §1

ragweed [5] = test: Test A preemergence; assay type: in vivo, Ambrosia artemisiifolia; details: 1000 g ai/ha, 0 to 100 scale (0 no effect, 100 complete control), 10 days
Text: as §1

blackgrass [6] = test: Test A postemergence; assay type: in vivo, Alopecurus myosuroides; details: 1000 g ai/ha, Postemergence; 0 to 100 scale
Text: as §1

pigweed, palmer [7] = test: Test A postemergence; assay type: in vivo, Amaranthus palmeri; details: 1000 g ai/ha, Postemergence; 0 to 100 scale
Text: as §1

goosegrass [8] = test: Test A postemergence; assay type: in vivo, Eleusine indica; details: 1000 g ai/ha, Postemergence; 0 to 100 scale
Text: as §1

kochia [9] = test: Test A preemergence; assay type: in vivo, Bassia scoparia; details: 1000 g ai/ha, 0 to 100 scale (0 no effect, 100 complete control), 10 days
Text: as §1

blackgrass [10] = test: Test A preemergence; assay type: in vivo, Alopecurus myosuroides; details: 1000 g ai/ha, 0 to 100 scale (0 no effect, 100 complete control), 10 days
Text: as §1

foxtail, giant [11] = test: Test A preemergence; assay type: in vivo, Setaria faberi; details: 1000 g ai/ha, 0 to 100 scale (0 no effect, 100 complete control), 10 days
Text: as §1

kochia [12] = test: Test A postemergence; assay type: in vivo, Bassia scoparia; details: 1000 g ai/ha, Postemergence; 0 to 100 scale
Text: as §1

foxtail, giant [13] = test: Test A postemergence; assay type: in vivo, Setaria faberi; details: 1000 g ai/ha, Postemergence; 0 to 100 scale
Text: as §1

ryegrass, Italian [14] = test: Test A postemergence; assay type: in vivo, Lolium multiflorum; details: 1000 g ai/ha, Postemergence; 0 to 100 scale
Text: as §1

Compound: Cc1noc(-c2cccc(C(=O)N3C[C@H](C)Oc4c(Cl)cccc43)c2)n1 [Compound 121]
- Plant response rating, Goosegrass (goosegrass [1]): 0
- Plant response rating, Ryegrass, Italian (ryegrass, Italian [2]): 0
- Plant response rating, Ragweed (ragweed [3]): 0
- Plant response rating, Horseweed (horseweed): 0
- Plant response rating, Pigweed, Palmer (pigweed, palmer [4]): 60
- Plant response rating, Galium (galium): 80
- Plant response rating, Ragweed (ragweed [5]): 0
- Plant response rating, Blackgrass (blackgrass [6]): 0
- Plant response rating, Pigweed, Palmer (pigweed, palmer [7]): 50
- Plant response rating, Goosegrass (goosegrass [8]): 0
- Plant response rating, Kochia (kochia [9]): 0
- Plant response rating, Blackgrass (blackgrass [10]): 0
- Plant response rating, Foxtail, Giant (foxtail, giant [11]): 60
- Plant response rating, Kochia (kochia [12]): 70
- Plant response rating, Foxtail, Giant (foxtail, giant [13]): 20
- Plant response rating, Ryegrass, Italian (ryegrass, Italian [14]): 0
